Laboratory results as given in ChEMBL document CHEMBL4673254, “Synthesis and Cytotoxicity Studies of Bioactive Benzofurans from Lavandula agustifolia and Modified Synthesis of Ailanthoidol, Homoegonol, and Egonol” (J Nat Prod, 2020).
Calls of active or inactive are those of the source. The rule behind the calls is not given here.

How the values were obtained:
[1] = tested on: Cellular tumor antigen p53 (Homo sapiens), P04637 [UNDEFINED MUTATION]; test: Activation of P53 mutant in human PC-3 cells assessed as increase in p21 protein expression at ser15 residues at 6 uM after 72 hrs by Western blot analysis; assay type: cell-based; details: filed as activator
Chain of Cellular tumor antigen p53 (Homo sapiens), P04637 [UNDEFINED MUTATION] (P04637 whole entry, looked up, stated change not applied): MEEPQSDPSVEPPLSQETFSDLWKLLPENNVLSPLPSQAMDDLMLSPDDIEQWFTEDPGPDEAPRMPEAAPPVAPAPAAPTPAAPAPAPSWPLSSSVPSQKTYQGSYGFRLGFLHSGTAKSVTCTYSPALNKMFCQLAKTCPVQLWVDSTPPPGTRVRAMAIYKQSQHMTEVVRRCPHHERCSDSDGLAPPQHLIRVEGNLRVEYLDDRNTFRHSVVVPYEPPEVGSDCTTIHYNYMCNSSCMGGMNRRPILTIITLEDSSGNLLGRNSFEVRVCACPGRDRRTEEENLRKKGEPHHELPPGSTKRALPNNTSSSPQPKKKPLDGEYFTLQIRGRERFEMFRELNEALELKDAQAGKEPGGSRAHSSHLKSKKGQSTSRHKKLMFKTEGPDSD

[2] = tested on: A549; test: Induction of apoptosis in human A549 cells assessed as increase in P53 protein expression at 6 uM after 72 hrs by Western blot analysis; assay type: functional, cell-based
[3] = tested on: PC-3; test: Cytotoxicity against human PC-3 cells assessed as reduction in cell viability at 1.25 to 20 uM after 72 hrs by Hoechst 33342 staining based assay; assay type: functional; details: dose 1.25-20 µM
[4] = tested on: Hep 3B2; test: Induction of apoptosis in human Hep3B cells assessed as increase in cleaved PARP level at 6 uM after 72 hrs by Western blot analysis; assay type: functional, cell-based
[5] = target: Cellular tumor antigen p53 (Homo sapiens) (UniProt P04637); test: Activation of P53 in human A549 cells assessed as increase in P53 phosphorylation at ser15 residues at 6 uM after 72 hrs by Western blot analysis; assay type: cell-based; details: filed as activator
Chain of Cellular tumor antigen p53 (Homo sapiens) (P04637 whole entry, looked up): as the sequence (P04637 whole entry, looked up, stated change not applied) above

[6] = tested on: HepG2; test: Induction of apoptosis in human HepG2 cells assessed as increase in P53 protein expression at 6 uM after 72 hrs by Western blot analysis; assay type: functional, cell-based
[7] = target: Cellular tumor antigen p53 (Homo sapiens) (UniProt P04637); test: Activation of P53 in human A549 cells assessed as increase in p21 protein expression at ser15 residues at 6 uM after 72 hrs by Western blot analysis; assay type: cell-based; details: filed as activator
[8] = tested on: HepG2; test: Cytotoxicity against human HepG2 cells assessed as reduction in cell viability at 1.25 to 20 uM after 72 hrs by Hoechst 33342 staining based assay; assay type: functional; details: dose 1.25-20 µM
[9] = tested on: Hep 3B2; test: Induction of apoptosis in human Hep3B cells assessed as increase in P53 protein expression at 6 uM after 72 hrs by Western blot analysis; assay type: functional, cell-based
[10] = tested on: Cellular tumor antigen p53 (Homo sapiens), P04637 [UNDEFINED MUTATION]; test: Activation of P53 mutant in human PC-3 cells assessed as increase in P53 phosphorylation at ser15 residues at 6 uM after 72 hrs by Western blot analysis; assay type: cell-based
[11] = tested on: PC-3; test: Induction of apoptosis in human PC-3 cells assessed as increase in cleaved PARP level at 6 uM after 72 hrs by Western blot analysis; assay type: functional, cell-based
[12] = tested on: Cellular tumor antigen p53 (Homo sapiens), P04637 [UNDEFINED MUTATION]; test: Activation of P53 mutant in human Hep3B cells assessed as increase in P53 phosphorylation at ser15 residues at 6 uM after 72 hrs by Western blot analysis; assay type: cell-based
[13] = tested on: MCF7; test: Cytotoxicity against human MCF7 cells assessed as reduction in cell viability at 1.25 to 20 uM after 72 hrs by Hoechst 33342 staining based assay; assay type: functional; details: dose 1.25-20 µM
[14] = target: Cellular tumor antigen p53 (Homo sapiens) (UniProt P04637); test: Activation of P53 in human MCF7 cells assessed as increase in P53 phosphorylation at ser15 residues at 6 uM after 72 hrs by Western blot analysis; assay type: cell-based; details: filed as activator
[15] = tested on: A549; test: Cytotoxicity against human A549 cells assessed as reduction in cell viability at 1.25 to 20 uM after 72 hrs by Hoechst 33342 staining based assay; assay type: functional; details: dose 1.25-20 µM
[16] = tested on: Hep 3B2; test: Cytotoxicity against human Hep3B cells assessed as reduction in cell viability at 1.25 to 20 uM after 72 hrs by Hoechst 33342 staining based assay; assay type: functional; details: dose 1.25-20 µM
[17] = tested on: PC-3; test: Induction of apoptosis in human PC-3 cells assessed as increase in P53 protein expression at 6 uM after 72 hrs by Western blot analysis; assay type: functional, cell-based
[18] = tested on: MCF7; test: Induction of apoptosis in human MCF7 cells assessed as increase in P53 protein expression at 6 uM after 72 hrs by Western blot analysis; assay type: functional, cell-based
[19] = tested on: HepG2; test: Induction of apoptosis in human HepG2 cells assessed as increase in cleaved PARP level at 6 uM after 72 hrs by Western blot analysis; assay type: functional, cell-based
[20] = tested on: A549; test: Induction of apoptosis in human A549 cells assessed as increase in cleaved PARP level at 6 uM after 72 hrs by Western blot analysis; assay type: functional, cell-based
[21] = tested on: MCF7; test: Induction of apoptosis in human MCF7 cells assessed as increase in cleaved PARP level at 6 uM after 72 hrs by Western blot analysis; assay type: functional, cell-based
[22] = target: Cellular tumor antigen p53 (Homo sapiens) (UniProt P04637); test: Activation of P53 in human MCF7 cells assessed as increase in p21 protein expression at ser15 residues at 6 uM after 72 hrs by Western blot analysis; assay type: cell-based; details: filed as activator
[23] = target: Cellular tumor antigen p53 (Homo sapiens) (UniProt P04637); test: Activation of P53 in human HepG2 cells assessed as increase in p21 protein expression at ser15 residues at 6 uM after 72 hrs by Western blot analysis; assay type: cell-based; details: filed as activator
[24] = Activation of P53 in human HepG2 cells assessed as increase in P53 phosphorylation at ser15 residues at 6 uM after 72 hrs by Western blot analysis; details: filed as activator
[25] = tested on: Cellular tumor antigen p53 (Homo sapiens), P04637 [UNDEFINED MUTATION]; test: Activation of P53 mutant in human Hep3B cells assessed as increase in p21 protein expression at ser15 residues at 6 uM after 72 hrs by Western blot analysis; assay type: cell-based; details: filed as activator

| SMILES | Activity [1] | Activity [2] | Activity [3] | Activity [4] | Activity [5] | Activity [6] | Activity [7] | Activity [8] | Activity [9] | Activity [10] | Activity [11] | Activity [12] | Activity [13] | Activity [14] | Activity [15] | Activity [16] | Activity [17] | Activity [18] | Activity [19] | Activity [20] | other results |
| --- | --- | --- | --- | --- | --- | --- | --- | --- | --- | --- | --- | --- | --- | --- | --- | --- | --- | --- | --- | --- | --- |
| COc1cc2oc(-c3ccc(O)cc3)cc2cc1CCO | Active | Active | Active | Active | Active | Active | Active | Active | inactive | inactive | Active | inactive | Active | Active | Active | Active | inactive | Active | Active | Active | Activity [21]: Active; Activity [22]: Active; Activity [23]: Active; Activity [24]: Active; Activity [25]: Active |
| COc1ccc(-c2cc3cc(CCO)cc(OC)c3o2)cc1 | – | – | inactive | – | – | – | – | inactive | – | – | – | – | inactive | – | inactive | inactive | – | – | – | – | – |
| COc1ccc(-c2oc3c(OC)cc(CCO)cc3c2C)cc1 | – | – | inactive | – | – | – | – | inactive | – | – | – | – | inactive | – | inactive | inactive | – | – | – | – | – |
| COc1ccc(-c2cc3cc(CCO)c(OC)cc3o2)cc1 | – | – | inactive | – | – | – | – | inactive | – | – | – | – | inactive | – | inactive | inactive | – | – | – | – | – |
| COc1ccc(-c2oc3cc(OC)c(CCO)cc3c2C)cc1 | – | – | inactive | – | – | – | – | inactive | – | – | – | – | inactive | – | inactive | inactive | – | – | – | – | – |
| COc1cc(CCO)cc2c(C)c(-c3ccc(O)cc3)oc12 | Active | Active | Active | Active | Active | Active | Active | Active | inactive | inactive | Active | inactive | Active | Active | Active | Active | inactive | Active | Active | Active | Activity [21]: Active; Activity [22]: Active; Activity [23]: Active; Activity [24]: Active; Activity [25]: Active |
| COc1cc2oc(-c3ccc(O)cc3)c(C)c2cc1CCO | – | – | Active | – | – | – | – | Active | – | – | – | – | Active | – | Active | Active | – | – | – | – | – |
| COc1cc(CCO)cc2cc(-c3ccc(O)cc3)oc12 | Active | Active | Active | Active | Active | Active | Active | Active | inactive | inactive | Active | inactive | Active | Active | Active | Active | inactive | Active | Active | Active | Activity [21]: Active; Activity [22]: Active; Activity [23]: Active; Activity [24]: Active; Activity [25]: Active |
